From PubChem BioAssay (NCI)
Values joined by “and” are separate entries in the source; they are usually repeats but may differ in a detail not shown here. Identical values can stand only once.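 Where inhibition never reached the appropriate level, the endpoint shown equals the highest concentration tested. Otherwise, values were interpolated linearly from a five-concentration, 48-hour dose response in 96-well plates. Here, GI50 denotes the concentration required for 50% inhibition of growth. TGI marks complete inhibition of growth.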

Assays:
Assay in all cases: growth of human tumour cells (NCI), 48 h
[1] = system: MDA-MB-231 breast
[2] = system: MALME-3M melanoma
[3] = system: HL-60(TB) leukemia
[4] = system: HOP-92 NSCLC
[5] = system: UACC-257 melanoma
[6] = system: CAKI-1 renal
[7] = system: UACC-62 melanoma
[8] = system: M14 melanoma
[9] = system: OVCAR-5 ovarian
[10] = system: EKVX NSCLC
[11] = system: NCI-H460 lung
[12] = system: NCI-H23 lung
[13] = system: MDA-MB-435
[14] = system: SK-OV-3 ovarian
[15] = system: CCRF-CEM leukemia
[16] = system: BT-549 breast
[17] = system: IGROV1 ovarian
[18] = system: UO-31 renal
[19] = system: MOLT-4 leukemia
[20] = system: HT29 colon
[21] = system: COLO 205 colon
[22] = system: SN12C renal
[23] = system: SK-MEL-28 melanoma
[24] = system: OVCAR-3 ovarian
[25] = system: SR leukemia
[26] = system: HCT-15 colon
[27] = system: SF-268 CNS
[28] = system: 786-0 renal
[29] = system: DU-145 prostate
[30] = system: PC-3 prostate
[31] = system: K-562 leukemia
[32] = system: SK-MEL-2 melanoma
[33] = system: NCI-H226 lung
[34] = system: OVCAR-4 ovarian
[35] = system: ACHN renal
[36] = system: HCT-116 colon
[37] = system: OVCAR-8 ovarian
[38] = system: RPMI-8226 leukemia
[39] = system: TK-10 renal
[40] = system: A549 NSCLC
[41] = system: U251 CNS
[42] = system: MCF7 breast
[43] = system: A498 renal
[44] = system: HCC-2998 colon
[45] = system: SF-539 CNS
[46] = system: SNB-19 CNS
[47] = system: NCI-H522 lung
[48] = system: LOX IMVI melanoma
[49] = system: RXF 393 renal
[50] = system: KM12 colon
[51] = system: SW-620 colon
[52] = system: SK-MEL-5 melanoma
[53] = system: HOP-62 NSCLC
[54] = system: T-47D breast
[55] = system: HS 578T breast
[56] = system: SF-295 CNS
[57] = system: NCI/ADR-RES ovarian

With CO/N=C/C=C\C(=O)N/C=C/C[C@H]1/C=C/[C@H](O)/C=C\C=C\c2cccc(O)c2C(=O)O1 the GI50 [1] was under 10 nM, the TGI [1] was 6640 nM and the GI50 [2] was 114 nM and 89.9 nM. For the same compound, the TGI [2] was 5880 nM and 10600 nM, the GI50 [3] was 20.8 nM and 37.3 nM and the GI50 [4] was < 10 nM and 19 nM. For the same compound, the TGI [4] was 74.5 nM and 492 nM, the GI50 [5] was 24.8 nM and 49.3 nM and the TGI [5] was 659 nM and 4170 nM. For the same compound, the GI50 [6] was under 10 nM, the GI50 [7] was < 14.8 nM and 22 nM and the TGI [7] was 79.5 nM and 60.5 nM. For the same compound, the GI50 [8] was < 10 nM and 15.2 nM, the TGI [8] was 119 nM and 136 nM and the GI50 [9] was < 11 nM and 32.6 nM. The TGI [9] was 14400 nM and > 54400 nM, the GI50 [10] was 189 nM and 467 nM and the TGI [10] was over 100000 nM. For the same compound, the GI50 [11] was 36.4 nM and 58.3 nM, the TGI [11] was 11100 nM and 5340 nM and the GI50 [12] was 2650 nM and 463 nM. For the same compound, the TGI [12] was > 100000 nM and 36100 nM, the GI50 [13] was 36.8 nM and 37 nM and the TGI [13] was 1960 nM and 482 nM. For the same compound, the TGI [14] was over 100000 nM, the GI50 [15] was 62.1 nM and 62.2 nM and the TGI [15] was over 77000 nM. For the same compound, the GI50 [16] was < 19.7 nM and 24.7 nM, the TGI [16] was 5960 nM and 32900 nM and the GI50 [17] was < 10 nM and 12.9 nM. For the same compound, the TGI [17] was > 49000 nM and 30900 nM, the GI50 [18] was 61 nM and 92.5 nM and the TGI [18] was 455 nM and 1230 nM. For the same compound, the GI50 [19] was 43.9 nM and 79 nM, the TGI [19] was 14000 nM and 23500 nM and the GI50 [20] was < 10 nM and 39.5 nM. The TGI [20] was 11200 nM and > 33700 nM, the GI50 [21] was 26.6 nM and 32.6 nM and the TGI [21] was 16000 nM and 14100 nM. The GI50 [22] was < 17.6 nM and 16.5 nM, the TGI [22] was over 72900 nM and the GI50 [23] was 303 nM and 309 nM. The TGI [23] was 13400 nM and 8660 nM, the GI50 [24] was 457 nM and 653 nM and the TGI [24] was 23800 nM and 27300 nM. For the same compound, the GI50 [25] was under 10 nM, the TGI [25] was 13800 nM and > 100000 nM and the GI50 [26] was 62.4 nM and 44.7 nM. The TGI [26] was 9700 nM and 7340 nM, the GI50 [27] was 204 nM and 137 nM and the TGI [27] was > 100000 nM and 33800 nM. The GI50 [28] was 54 nM and 125 nM, the TGI [28] was 15600 nM and 4030 nM and the GI50 [29] was 81.6 nM and 41.3 nM. The TGI [29] was > 54000 nM and 22900 nM, the GI50 [30] was 94.6 nM and 47.7 nM and the TGI [30] was 81400 nM and > 54900 nM. For the same compound, the GI50 [31] was 27.5 nM and 35.8 nM, the TGI [31] was over 100000 nM and the GI50 [32] was 118 nM and 138 nM. The TGI [32] was 1060 nM and 1760 nM, the GI50 [33] was 829 nM and 1310 nM and the TGI [33] was 13300 nM and 25800 nM. For the same compound, the GI50 [34] was 17300 nM and 2740 nM, the TGI [34] was over 100000 nM and the GI50 [35] was 39 nM and 54.2 nM. The TGI [35] was 15700 nM and 15200 nM, the GI50 [36] was < 10 nM and 20.7 nM and the TGI [36] was 12800 nM and 12900 nM. The GI50 [37] was 19.1 nM and 33 nM, the TGI [37] was over 100000 nM and the GI50 [38] was 26.5 nM and 30.9 nM. The TGI [38] was 6800 nM and 2210 nM, the TGI [39] was 45100 nM and > 100000 nM and the GI50 [40] was 111 nM and 82.2 nM. The TGI [40] was over 100000 nM, the GI50 [41] was 100 nM and 28.7 nM and the TGI [41] was 62100 nM and 14700 nM. For the same compound, the GI50 [42] was 99.7 nM and 58.1 nM, the TGI [42] was > 100000 nM and 26700 nM and the GI50 [43] was 722 nM. The TGI [43] was 5420 nM, the GI50 [44] was 430 nM and 208 nM and the TGI [44] was 31000 nM and 7540 nM. The GI50 [45] was 46 nM and 51.4 nM, the TGI [45] was 4200 nM and 1830 nM and the GI50 [46] was 2810 nM and 3470 nM. The TGI [46] was over 100000 nM, the GI50 [47] was 17.6 nM and 31.1 nM and the TGI [47] was 14300 nM and 7120 nM. For the same compound, the GI50 [48] was under 10 nM, the TGI [48] was 16 nM and the GI50 [49] was 931 nM and 108 nM. The TGI [49] was 34500 nM and 12900 nM, the GI50 [50] was 40.7 nM and 52 nM and the TGI [50] was 17200 nM and 15100 nM. For the same compound, the GI50 [51] was 43.3 nM and 62.8 nM, the TGI [51] was 12400 nM and 11300 nM and the GI50 [52] was under 10 nM. For the same compound, the TGI [52] was < 11.3 nM and 20.4 nM, the GI50 [53] was 266 nM and 65.9 nM and the GI50 [54] was < 10 nM and 27.3 nM. The TGI [54] was 64700 nM and > 71700 nM, the GI50 [55] was 454 nM and 199 nM and the TGI [55] was over 100000 nM. The GI50 [56] was 22.9 nM and 19.8 nM, the TGI [56] was 117 nM and 84.5 nM and the GI50 [57] was 139 nM and 77.1 nM. It also gave a TGI [57] of over 100000 nM.
